Data: ChEMBL document CHEMBL1201862, “PubChem BioAssay data set” (2004)
Active and inactive are the calls of the source.

Key:
[1] = reduced cellular PGC1a acetyl-lysine signal – cell-based, cherry-picked samples, dose response (AID 720514); type: functional;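 note: potency may reflect raised or lowered acetylation signal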
[2] = activation of miR-122 Renilla sensor silencing – cell-based, Huh7 psiCHECK-miR122, Renilla luciferase, cherry-picked, dose response (AID 651956); type: functional;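 note: huh7 hepatoma cells stably carrying a psiCHECK-2 miR-122 sensor plasmid; renilla luciferase signal reporting endogenous miR-122 activity after 48 h compound exposure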
[3] = general mammalian cell viability loss – inhibitor set, cherry-pick, set 2, cytotoxicity control for miR-122 modulator project, dose response (AID 720697); type: functional, cell-based
fMet-Leu-Phe receptor = fMet-Leu-Phe receptor (Homo sapiens, UniProt P21462); assay: formyl peptide receptor binders – dose response (AID 519); type: functional
HEK293 [4] = assay: viability loss in HEK293T cells – cell-based, ATP luminescence, cherry-pick samples, cytotoxicity control, dose response (AID 687005); type: functional; conditions: Homo sapiens;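 note: cells exposed to compound for 48 hours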
[5] = HEK293 Cytotoxicity Assay Measured in Cell-Based System Using Plate Reader - 7071-01_Inhibitor_Dose_CherryPick_Activity_Set2.; type: functional
[6] = COV434 cell viability loss – plate reader, dry powder, SA7, cytotoxicity control for PAX8 inhibitor project, dose response (AID 743145); type: functional, cell-based
[7] = PAX5 cellular inhibition readout – cell-based, plate reader, dry powder samples, selectivity assay for PAX8 inhibitor project, dose response (AID 743047); type: functional;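 note: HEK293 cells carrying a Pax5 driven CD19 promoter luciferase reporter; potency of inhibitors that lower reporter luminescence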
[8] = inhibitors acting on PAX2 in cells – cell-based, plate reader, dry powder samples, selectivity assay for PAX8 inhibitor project, dose response (AID 743048); type: functional;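 note: HEK293 cells carrying a WT1 promoter luciferase reporter driven by expressed Pax2; potency is for inhibition of Pax2 driven reporter signal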
[9] = PAX8-dependent cell viability loss – plate reader, dry powder, dose response (AID 743049); type: functional, cell-based
[10] = blockade of melanocortin 4 receptor signaling – cell-based, plate reader, cherry pick, counter-screen for LGR2 antagonist project, dose response (AID 743444); type: functional;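 note: transfected HEK 293 cells stimulated with alpha-MSH peptide; potency of inhibitors of the alpha-MSH evoked signal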
[11] = viability loss in HEK293 cells – cell-based, plate reader, cherry-picked samples, cytotoxicity control, dose response (AID 743446); type: functional
[12] = DRD fibroblast viability loss – cell-based, non-viral oncogenic, luminescence, dose response (AID 1934); type: functional; conditions: Homo sapiens
[13] = toxicity toward HepG2 liver cells – cell-based, plate reader, cherry-pick, antagonist series, cytotoxicity control, dose response (AID 743416); type: functional
[14] = reduction of Shn3 3'UTR-driven luciferase in osteoblasts – cell-based, Clone20 osteoblasts, firefly luciferase, cherry-picked, dose response (AID 624132); type: functional;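 note: firefly luciferase luminescence from reporter carrying the Shn3 3'UTR in osteoblasts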
[15] = non-specific 3'UTR reporter inhibition in Clone20-Shn3RL – cell-based, Renilla luciferase, cherry-picked, counter-screen for Shn3 inhibitor project, dose response (AID 624133); type: functional
[16] = Luminescence Cell-Based Dose Retest to Confirm Inhibitors of Cancer Stem Cells. [Related pubchem assays (depositor defined):AID2717, AID2721]; type: functional; conditions: Homo sapiens
BJ [17] = assay: cells; type: functional, cell-based; conditions: Homo sapiens
[18] = loss of viability in HepG2 cells – cell-based, CellTiter-Glo, cherry-picked, cytotoxicity control for Shn3 inhibitor project, dose response (AID 624134); type: functional
[19] = blockers of bursicon-stimulated LGR2 cAMP reporter – cell-based, HEK293, CRE-luciferase reporter, cherry pick, set 2, dose response (AID 743343); type: functional;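 note: transfected cells were stimulated with diluted bursicon conditioned medium after compound addition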
[20] = A549 cell cytotoxicity, dose response, cytotoxicity control, plate reader, cherry-pick, antagonist series (AID 743412); type: functional, cell-based
BJ [21] = assay: growth inhibition of engineered Ras-driven BJ cells – cell-based, alamar blue fluorescence, cherrypicked samples, dose response (AID 2631); type: functional; conditions: Homo sapiens;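 note: confirmatory dose-response assay in RAS-dependent BJ fibroblasts engineered with TERT, LT and ST, with cytotoxicity read by fluorescence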
[22] = general cell-killing toxicity readout – plate reader, dry powder samples, cytotoxicity control for PAX8 inhibitor project, dose response (AID 743021); type: functional, cell-based
Paired box protein Pax-8 = Paired box protein Pax-8 (Homo sapiens, UniProt Q06710); assay: PAX8 transcriptional activity inhibition in RMG-I – RMG-I cells, luciferase, cherry-pick, dose response (AID 687027); type: functional, cell-based;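 note: luciferase reporter driven by Pax8 target thyroperoxidase promoter measured by SteadyGlo luminescence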
[23] = general mammalian cell viability loss – activator set, cherry-pick, cytotoxicity control for miR-122 modulator project, dose response (AID 720690); type: functional, cell-based;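 note: HEK293T human cells scored for general mammalian cytotoxicity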
HEK293 [24] = assay: EBV LMP1 TES2 canonical NF-kB signalling blockers – cell-based, HEK293, luciferase, cherry-pick, dose response (AID 588343); type: functional; conditions: Homo sapiens
BJ [25] = assay: BJ-TERT fibroblast viability loss – cell-based, RAS-independent, luminescence, dose response (AID 1933); type: functional; conditions: Homo sapiens
BJ [26] = assay: BJ-TERT-LT-ST fibroblast viability loss – cell-based, RAS-independent, luminescence, dose response (AID 1935); type: functional; conditions: Homo sapiens;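 note: BJ fibroblasts immortalized with TERT plus LT and ST oncogenes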
[27] = Fluorescence-based cell-based high throughput dose response assay for inhibitors of the interaction of nucleotide-binding oligomerization domain containing 2 (NOD2) and the receptor-interacting serine-threonine kinase 2 (RIPK2).; type: functional; conditions: Homo sapiens

fMet-Leu-Phe receptor, sequence (P21462 whole entry): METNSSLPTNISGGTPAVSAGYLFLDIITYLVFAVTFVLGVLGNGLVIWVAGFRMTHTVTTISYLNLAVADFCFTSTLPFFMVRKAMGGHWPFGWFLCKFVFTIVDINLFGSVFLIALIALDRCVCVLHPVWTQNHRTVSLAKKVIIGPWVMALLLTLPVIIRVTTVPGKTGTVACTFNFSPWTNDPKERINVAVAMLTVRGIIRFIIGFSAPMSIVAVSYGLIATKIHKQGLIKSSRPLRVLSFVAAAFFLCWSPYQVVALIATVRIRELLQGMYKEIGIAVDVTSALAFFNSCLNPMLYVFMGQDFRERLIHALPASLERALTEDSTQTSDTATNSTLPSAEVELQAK
Paired box protein Pax-8, sequence (Q06710 whole entry): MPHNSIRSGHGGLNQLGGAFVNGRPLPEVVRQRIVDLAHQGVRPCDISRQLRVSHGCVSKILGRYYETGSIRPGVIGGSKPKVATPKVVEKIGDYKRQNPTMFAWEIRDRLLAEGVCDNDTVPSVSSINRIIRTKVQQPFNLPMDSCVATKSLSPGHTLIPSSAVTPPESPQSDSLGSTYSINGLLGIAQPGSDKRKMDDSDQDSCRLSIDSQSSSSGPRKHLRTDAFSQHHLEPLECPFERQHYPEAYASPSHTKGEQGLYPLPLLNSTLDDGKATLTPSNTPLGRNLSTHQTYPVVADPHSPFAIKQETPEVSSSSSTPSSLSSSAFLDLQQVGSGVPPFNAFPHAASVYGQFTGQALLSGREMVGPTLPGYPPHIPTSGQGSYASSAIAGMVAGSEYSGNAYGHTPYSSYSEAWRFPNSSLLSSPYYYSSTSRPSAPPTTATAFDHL

SMILES: O=C(Nc1ccc(F)cc1)N1CCCCN2[C@H](CO)[C@@H](c3ccc(C#Cc4ccccc4)cc3)[C@H]2C1
- AC50 [1]: 22.2 µM (active)
- AC50 [2]: 10.5 µM (active)
- AC50 [3]: 8.31 µM (active)

SMILES: CC(C)OC(=O)c1nnn(-c2nonc2N)c1CN1CCc2ccccc2C1
- Ki (fMet-Leu-Phe receptor): 50 µM (inactive)

SMILES: COc1ccc(S(=O)(=O)N[C@H]2C=C[C@H](CC(=O)N3CCC(Cc4ccccc4)CC3)O[C@@H]2CO)cc1
- AC50 (HEK293 [4]): 9.52 µM (active)
- AC50 [5]: 9.52 µM (active)

SMILES: N#C[C@@H]1[C@@H](c2ccc(C3=CCCCC3)cc2)[C@@H](CO)N1C(=O)NC1CCCCC1
- AC50 [6]: 67.3 µM (active)
- AC50 [7]: 29.3 µM (active)
- AC50 [8]: > 32 µM (inactive)
- AC50 [9]: 10.6 µM (active)

SMILES: Cc1ccc(S(=O)(=O)N[C@H]2C=C[C@@H](CC(=O)N3CCC(Cc4ccccc4)CC3)O[C@H]2CO)cc1
- AC50 (HEK293 [4]): 14.2 µM (active)
- AC50 [5]: 14.2 µM (active)

SMILES: Cc1cccc(-n2ncc(Cl)c(Cl)c2=O)c1
- AC50 [10]: 27.5 µM (active)
- AC50 [11]: 7.36 µM (active)
- EC50 [12]: 5.17 µM (active)
- AC50 [13]: 8.69 µM (active)
- AC50 [14]: 5.8 µM (active)
- AC50 [15]: 12.4 µM (active)
- AC50 [16]: 2.66 µM (active)
- EC50 (BJ [17]): > 150 µM (inconclusive)
- AC50 [2]: 8.05 µM (active)
- AC50 [18]: 40.7 µM (active)
- AC50 [19]: 20.4 µM (active)
- AC50 [20]: 7.6 µM (active)
- EC50 (BJ [21]): 0.556 µM (active)
- AC50 [22]: 25.6 µM (active)
- AC50 (Paired box protein Pax-8): 5.11 µM (active)
- AC50 [23]: 2.27 µM (active)
- AC50 (HEK293 [24]): 3.08 µM (active)
- EC50 (BJ [25]): 1.02 µM (active)
- EC50 (BJ [26]): 5.1 µM (inconclusive)
- IC50 [27]: 5.33 µM (active)
